The text below walks through data of patent publication US10150755B2, “ASK1 inhibitor compounds and uses thereof” (Seal Rock Therapeutics, Inc., priority 2017, dated 2018).

For experiment [1], the system named is LPS-induced TNFalpha in Human PBMCs. The experiment in a line: Inhibition of LPS-induced TNFalpha in Human PBMCs. The experiment is classed as cell-based. The note with it: PBMC, 100 ng/ml LPS, 6 hr, read-out: TNFa Inhibition IC50. Here is the method: Cryopreserved human PBMCs were obtained from AllCells (cat# PB003F). After thawing/dilution protocols using RPMI medium supplemented with 5% FBS (heat inactivated), 100 ul/well of 1×10^6 cells/ml were plated into 96 well tissue culture plates (Corning). Cells were then pre-incubated for 1 hr at 37° C. in humidified 5% CO2 and 95% air with test compounds diluted in DMSO (final DMSO concentration 0.3%). Each compound was tested at 10 concentrations in duplicate wells. After the pre-incubation, 100 ng/ml LPS (E. Coli; Sigma) in RPMI media with 5% FBS was added for a 6 hr incubation at 37° C. in humidified 5% CO2 and 95% air. Controls on each plate included cells and LPS only, cells and media only (no LPS), and media only. After the 6 hr incubation, plates were centrifuged and the supernatants transferred to a new plate and frozen for subsequent TNFalpha analysis. Human TNFalpha was analyzed by ELISA according to the manufacturer's instructions (BD Sciences, BD OptEIA™ Cat#550610) and analyzed on a SpectraMax M series (Molecular Devices) microplate reader at OD 450 nm. IC50s were calculated using XLFit4 curve fitting software (IDBS) and a 4-parameter one-site sigmoid dose response fit.

The target of another experiment is ASK1 (Homo sapiens (Human), UniProt Q99683). The experiment in a line: ASK1 Kinase Assay (Promega ASK1 Kinase Enzyme System, ADP-Glo). The experiment is classed as biochemical. As to conditions: enzyme 50 nM, ATP 10 μM. Here is the method:
The ASK1 enzymatic assay was run following Promega ASK1 Kinase Enzyme System (Cat #V3881). The kit provides the protocol, enzymes and all reagents necessary to run an assay. Firstly, the compounds, enzyme, substrate and ATP were diluted in provided assay buffer. The final concentration of the enzyme was 50 nM, substrate (Myelin basic protein) 1 μg/ml and ATP 10 μM. The compound and the enzyme were pre-incubated in a 384 well white solid bottom plate (Greiner, Cat#784075) for 10 minutes. After incubation, the substrate and ATP were added and incubated for further 60 minutes. After 60 minutes, ADP-Glo™ was added and plate was incubated for another 40 minutes. After 40 minutes, Kinase Detection Reagent was added and the plate was incubated for 45 minutes. After 45 minutes, plate was read on Perkin Elmer EnVision using luminescence read (0.5 seconds/well).
(In general: ADP-Glo first removes unused ATP, then detects ADP through luciferase.)

ASK1, sequence (Q99683 649-946 limits assumed): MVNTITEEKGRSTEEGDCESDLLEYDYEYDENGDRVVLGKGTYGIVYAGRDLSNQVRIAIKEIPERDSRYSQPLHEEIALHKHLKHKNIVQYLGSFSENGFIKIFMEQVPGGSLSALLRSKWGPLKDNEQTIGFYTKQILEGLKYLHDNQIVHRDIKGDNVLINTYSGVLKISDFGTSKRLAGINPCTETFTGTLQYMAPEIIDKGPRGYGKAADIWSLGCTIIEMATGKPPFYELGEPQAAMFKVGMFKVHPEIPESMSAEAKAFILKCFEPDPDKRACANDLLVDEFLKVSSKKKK

In general, IC50 refers to the concentration at which inhibition is half-maximal. As for `O=C(c1ccc2c(c1)CN(c1cccc(-c3nncn3C3CC3)n1)C2=O)N1CCOCC1` [Compound 7, 2-(6-(4-cyclopropyl-4H-1,2,4-triazol-3-yl)pyridin-2-yl)-5-(morpholine-4-carbonyl)isoindolin-1-one], the values for the IC50 (in experiment [1]; against ASK1) were > 10 nM and < 200 nM, respectively.
`CN1CCN(C(=O)c2ccc3c(c2)CN(c2cccc(-c4nncn4C4CC4)n2)C3=O)CC1` [Compound 10, 2-(6-(4-cyclopropyl-4H-1,2,4-triazol-3-yl)pyridin-2-yl)-5-(4-methylpiperazine-1-carbonyl)isoindolin-1-one]: the IC50 in experiment [1] is 2000 to 10000 nM; against ASK1, < 200 nM.
With `O=C(c1ccc2c(c1)CN(c1cccc(-c3nncn3C3CC3)n1)C2=O)N1CCCCC1` [Compound 11, 2-(6-(4-cyclopropyl-4H-1,2,4-triazol-3-yl)pyridin-2-yl)-5-(piperidine-1-carbonyl)isoindolin-1-one], the IC50 in experiment [1] is 2000 to 10000 nM; on ASK1, < 200 nM.
The like results for `O=C(c1ccc2c(c1)CN(c1cccc(-c3nncn3C3CC3)n1)C2=O)N1CCC(O)CC1` [Compound 12, 2-(6-(4-cyclopropyl-4H-1,2,4-triazol-3-yl)pyridin-2-yl)-5-(4-hydroxypiperidine-1-carbonyl)isoindolin-1-one] were, in that order, > 10 nM and < 200 nM.
The like results for `CC1(O)CCN(C(=O)c2ccc3c(c2)CN(c2cccc(-c4nncn4C4CC4)n2)C3=O)CC1` [Compound 13, 2-(6-(4-cyclopropyl-4H-1,2,4-triazol-3-yl)pyridin-2-yl)-5-(4-hydroxy-4-methylpiperidine-1-carbonyl)isoindolin-1-one] were, in that order, > 10 nM and < 200 nM.
For the compound `COC1CCN(C(=O)c2ccc3c(c2)CN(c2cccc(-c4nncn4C4CC4)n2)C3=O)CC1` [Compound 14, 2-(6-(4-cyclopropyl-4H-1,2,4-triazol-3-yl)pyridin-2-yl)-5-(4-methoxypiperidine-1-carbonyl)isoindolin-1-one], the IC50 in experiment [1] was 2000 to 10000 nM; at ASK1, < 200 nM.
The like results for `CN(C)C1CCN(C(=O)c2ccc3c(c2)CN(c2cccc(-c4nncn4C4CC4)n2)C3=O)CC1` [Compound 15, 2-(6-(4-cyclopropyl-4H-1,2,4-triazol-3-yl)pyridin-2-yl)-5-(4-(dimethylamino)piperidine-1-carbonyl)isoindolin-1-one] were, in that order, 2000 to 10000 nM and < 200 nM.
The like results for `CC(=O)N1CCN(C(=O)c2ccc3c(c2)CN(c2cccc(-c4nncn4C4CC4)n2)C3=O)CC1` [Compound 16, 5-(4-acetylpiperazine-1-carbonyl)-2-(6-(4-cyclopropyl-4H-1,2,4-triazol-3-yl)pyridin-2-yl)isoindolin-1-one] were, in that order, > 10 nM and < 200 nM.
The like results for `CC(=O)NC1CCN(C(=O)c2ccc3c(c2)CN(c2cccc(-c4nncn4C4CC4)n2)C3=O)CC1` [Compound 17, N-(1-(2-(6-(4-cyclopropyl-4H-1,2,4-triazol-3-yl)pyridin-2-yl)-1-oxoisoindoline-5-carbonyl)piperidin-4-yl)acetamide] were, in that order, > 10 nM and < 200 nM.
As for `O=C1c2cc(-c3cncnc3)ccc2CN1c1cccc(-c2nncn2C2CC2)n1` [Compound 43, 2-(6-(4-cyclopropyl-4H-1,2,4-triazol-3-yl)pyridin-2-yl)-6-(pyrimidin-5-yl)isooindolin-1-one], the IC50 in experiment [1] is 2000 to 10000 nM; against ASK1, < 200 nM.
The like results for `Cc1ncc(-c2ccc3c(c2)C(=O)N(c2cccc(-c4nncn4C4CC4)n2)C3)cn1` [Compound 44, 2-(6-(4-cyclopropyl-4H-1,2,4-triazol-3-yl)pyridin-2-yl)-6-(2-methylpyrimidin-5-yl)isoindolin-1-one] were, in that order, 2000 to 10000 nM and < 200 nM.
The like results for `CC(C)Oc1cc2c(cc1-c1cccnc1)C(=O)N(c1cccc(-c3nncn3C3CC3)n1)C2` [Compound 68, 2-(6-(4-cyclopropyl-4H-1,2,4-triazol-3-yl)pyridin-2-yl)-5-isopropoxy-6-(pyridin-3-yl)isoindolin-1-one] were, in that order, < 2000 nM and < 200 nM.
The like results for `O=C1c2cc(-c3cccnc3)c(OC3CCCC3)cc2CN1c1cccc(-c2nncn2C2CC2)n1` [Compound 69, 5-(Cyclopentyloxy)-2-(6-(4-cyclopropyl-4H-1,2,4-triazol-3-yl)pyridin-2-yl)-6-(pyridin-3-yl)isoindolin-1-one] were, in that order, < 2000 nM and < 200 nM.
Consider `O=C(c1cc2c(cc1-c1cccnc1)C(=O)N(c1cccc(-c3nncn3C3CC3)n1)C2)N1CCCC1` [Compound 71, 2-(6-(4-cyclopropyl-4H-1,2,4-triazol-3-yl)pyridin-2-yl)-6-(pyridin-3-yl)-5-(pyrrolidine-1-carbonyl)isoindolin-1-one], for which the half-maximal inhibitory concentration (IC50) was 2000 to 10000 nM in experiment [1] and < 200 nM on ASK1.
